In patent US20050227337A1, “Method for producing ascorbic acid intermediates” (priority 1998, published 2005):

Assays:
[1] = system: 2-keto-D-gluconate dehydrogenase; details: reported by Shinagawa and Ameyama (1982); cited from earlier work
[2] = biological target: T1, GDH from T. acidophilum (Thermoplasma acidophilum, UniProt P13203); experiment: GDH activity in the presence of methanol; assay type: biochemical; details: incubated with 10% methanol; 50 mM Tris, pH 7
T1 construct: purchased Sigma
T1 sequence (P13203 1-361): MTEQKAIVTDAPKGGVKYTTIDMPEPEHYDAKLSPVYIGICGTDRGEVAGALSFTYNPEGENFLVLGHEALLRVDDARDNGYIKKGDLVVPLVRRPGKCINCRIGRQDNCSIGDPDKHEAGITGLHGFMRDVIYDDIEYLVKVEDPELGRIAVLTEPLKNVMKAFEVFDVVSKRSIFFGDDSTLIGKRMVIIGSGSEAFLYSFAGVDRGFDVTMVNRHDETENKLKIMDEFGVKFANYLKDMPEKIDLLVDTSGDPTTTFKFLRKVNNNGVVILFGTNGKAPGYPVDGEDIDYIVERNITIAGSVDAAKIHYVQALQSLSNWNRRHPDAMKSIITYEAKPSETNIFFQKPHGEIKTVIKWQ

[3] = system: D-gluconic acid dehydrogenase; experiment: D-gluconic acid dehydrogenase activity in permeabilized cells with methanol (product formation, HPLC); assay type: biochemical, P. citrea; details: permeabilized cells with 15% MeOH and gluconic acid
Protocol: (§1) 400 ml of P. citrea cells having a mutation in the naturally occurring membrane bound GDH was grown to 80 OD (600 nm) in 10 g/L gluconate, and mixed with 16 ml of a mixture of 10% toluene and 90% acetone for 3 minutes at 22 C. The permeabilized cells were then centrifuged for 10 minutes at 9000 rpm, and the resulting cell pellet was washed with 400 ml of 50 mM tris, pH 7. The washings were repeated twice more to ensure removal of residual organic solvent.
(§2) Permeabilized cells were incubated with 15% MeOH and gluconic acid.

[4] = system: 2-keto-D-gluconic acid dehydrogenase; experiment: 2-keto-D-gluconic acid dehydrogenase activity in permeabilized cells with methanol (product formation, HPLC); assay type: biochemical, P. citrea; details: permeabilized cells with 15% MeOH and gluconic acid
Protocol: as §1, §2

[5] = system: reductase and glucose dehydrogenase (GDH); experiment: NADPH/NADP+ ratio in cofactor recycling reaction (absorbance at 340 nm); assay type: biochemical; details: final concentration 0.5 M NaCl; room temperature, pH 7
Protocol: Therefore, if the two cofactors are mixed together, the amount of NADPH present can be determined by the absorbance at 340 nm. If the amount of NADP+ originally added is also known, the ratio of the two cofactors can then be easily determined. This method can be used to measure how the addition of various components to a reaction, such as a cofactor recycling reaction, affects the reaction equilibrium.
A 1 ml reaction was set up in a cuvette at room temperature. The reaction consisted of buffer (50 mM bis-tris, pH 7), 5 mg glucose, 5 mg 2,5-DKG, 100 uM NADPH, 100 uM NADP+, reductase and glucose dehydrogenase (GDH). The enzymes were added last to initiate the reaction, and the cofactor levels were monitored at 340 nm. After equilibrium was reached (FIG. 7), an additional aliquot of GDH was added. Very quickly the equilibrium shifted to favor more NADPH being present. Addition of more GDH gave the same response.
Another 1 ml incubation was set up as above. After it reached equilibrium, 29 mg of NaCl was added to it to give a final concentration of 0.5 M NaCl.

For `O=C(O)CCC(=O)O` [succinate], the “effect on 2-keto-D-gluconate dehydrogenase” value [1] is listed as “inhibit”.

With `CO` [methanol] the GDH activity [2] was “small decrease in activity”, the “activity of D-gluconic acid dehydrogenase” value [3] was “not significantly affected” and the “activity of 2-keto-D-gluconic acid dehydrogenase” value [4] was “not significantly affected”.

In the case of `[Cl-].[Na+]` [NaCl, sodium chloride], the “shift of NADPH/NADP+ equilibrium” value [5] is reported as “dramatically shifted the equilibrium to favor the presence of NADPH”.

For `O=C(O)CC(O)(CC(=O)O)C(=O)O` [citrate], the “effect on 2-keto-D-gluconate dehydrogenase” value [1] is listed as “inhibit”.
